Here are results for 20 compounds from paper PMC3718762, “Differential Disruption of EWS-FLI1 Binding by DNA-Binding Agents” (PLoS ONE, 2013).

One assay concerns the target EWS-FLI1. Put plainly: AlphaScreen proximity assay, binding of recombinant EWS-FLI1 to cognate DNA oligo. To be noted: for IC50: read-out: IC50 EWS-FLI1, disruption of recombinant EWS-FLI1 binding to DNA; for Disruption of EWS-FLI1 binding compared with p53 binding in the parallel assays: EWS-FLI1 versus p53. For orientation: In Alpha technology, singlet oxygen from a donor bead excites a nearby acceptor bead.

In the next assay the target is T1, p53 (Homo sapiens, UniProt P04637).
T1 construct: made in house; host or cells: bacteria (pGex-6P-1-p53); plasmid was a gift from Dr. Guangchao Sui
Description: AlphaScreen proximity assay (counterscreen), binding of recombinant p53 to cognate DNA oligo. The text has this:
An AlphaScreen assay for binding of recombinant EWS-FLI1 to DNA was previously described. Briefly, recombinant EWS-FLI1 and p53 were synthesized in bacteria transformed with pGex-6P-1-EWS-FLI1 or pGex-6P-1-p53, and bound to AlphaScreen acceptor beads. A biotinylated oligonucleotide containing two copies of the EWS-FLI1 binding motif or p53 binding motifs was bound to AlphaScreen donor beads. For EWS-FLI1, the oligo sequence was: […]. The p53 binding oligo sequence was: […]. This assay was used to screen 5,200 compounds, as previously described. IC50 values were calculated with the GraphPad Prism software package.
We developed a homogeneous AlphaScreen assay to assess the binding of recombinant EWS-FLI1 to DNA [18]. A parallel assay assessing binding of p53 to DNA was used as a counterscreen. Briefly, in these proximity assays, recombinant GST-EWS-FLI1 or GST-p53 was bound to glutathione-conjugated AlphaScreen acceptor beads, and a synthetic biotinylated oligonucleotide (oligo) containing tandem EWS-FLI1 or p53 binding sites was bound to streptavidin-conjugated AlphaScreen donor beads. Binding of GST-EWS-FLI1 or GST-p53 to the cognate oligo allows singlet oxygen transfer from donor to acceptor beads when excited at 680 nm, with resulting light emission between 520–620 nm.

The test system of the next assay is NR0B1 promoter. Description: NR0B1-Luc firefly luciferase reporter assay in A673 cells. In kind it is cell-based, human. To be noted: A673 cells, NR0B1-Luc versus UbC-RL. The text has this: The NR0B1 promoter was amplified from human genomic DNA using the 5′ primer- […] and 3′ primer - […]. NR0B1 promoter amplicon was cloned into the NheI and HindIII sites in the pGL.3Basic vector. The 5′ primer-[…] was used to amplify a truncated NR0B1 promoter in which the entire EWS-FLI1 binding region (GGAA repeats) was deleted to construct pGL.3b-NR0B1del. All constructs were confirmed by sequencing. All other plasmids were previously described.
Ewing sarcoma A673 cells at 50% confluence in 100 mm dishes were transfected with both 5.8 µg of pGL.3b-NR0B1 and 0.2 µg of pGL.3b-Ubc-RL reporter plasmids as above. Eight hours post-transfection, cells were trypsinized and 600 ul (2×10^5) of cells were added to each well of 24 well plates. 5 µl of different concentration of compounds or DMSO control were added to each well. Each treatment was performed in triplicate. Cells were incubated for 16 hours, then cells were lysed in 100 µl of lysis buffer and 10 µl of cell lysate was used for the dual luciferase assay. Renilla luciferase activity was used as an internal control for normalization of nonspecific transcriptional inhibition or cytotoxic effects. Experiments were repeated three times. IC50 values were calculated using Prism (Graphpad).
To determine the effect of compounds on EWS-FLI1 activity in cells, we used a reporter assay comprised of the NR0B1 promoter, a prototypical EWS-FLI1-regulated gene, driving expression of firefly luciferase. Renilla luciferase driven by the Ubiquitin C promoter (UbC-RL) was used as an internal control. Confirming prior studies, the NR0B1 promoter was verified to be highly responsive to EWS-FLI1, whereas the UbC promoter activity was not subject to regulation by EWS-FLI1 (Figure S1).
For orientation: In a reporter assay the amount or activity of a reporter protein is the signal.

The subject of a further assay is Ewing sarcoma cells. More on the design: method as in PMID 21403840, PMID 21653923. The following applies: prior studies ref [11], [12]; cited from earlier work.
In assay [1] the test system is EWS-FLI1 downstream targets. Also on record: method as in PMID 21403840, PMID 21653923. The following applies: prior studies ref [11], [12]; cited from earlier work.
Where [2] appears, read: AlphaScreen, disruption of recombinant p53 binding to DNA, read-out: IC50 p53.

Counter-ions that a name gives are not always drawn. Like-named read-outs stand apart in the source and are kept apart here.

T1 sequence (P04637 whole entry, species assumed): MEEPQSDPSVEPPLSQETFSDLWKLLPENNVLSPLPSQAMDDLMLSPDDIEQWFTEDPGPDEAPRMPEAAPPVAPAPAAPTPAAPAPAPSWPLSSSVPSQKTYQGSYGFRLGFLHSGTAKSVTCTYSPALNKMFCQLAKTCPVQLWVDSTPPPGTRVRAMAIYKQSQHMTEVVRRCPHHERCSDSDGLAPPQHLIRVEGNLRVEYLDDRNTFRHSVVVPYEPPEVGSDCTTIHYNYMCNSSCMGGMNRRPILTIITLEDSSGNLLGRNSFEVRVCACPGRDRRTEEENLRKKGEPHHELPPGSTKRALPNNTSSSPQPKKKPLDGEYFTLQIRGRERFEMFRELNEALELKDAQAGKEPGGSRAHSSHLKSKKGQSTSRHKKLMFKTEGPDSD

As for `O=c1c2ccccc2[se]n1-c1ccccc1` [Ebselen], the figures for the IC50 at EWS-FLI1 and at p53 (setting [2]) were 631 nM and greater than 10000 nM, respectively. For the same compound, the “Separation of inhibition of the NR0B1 and UbC reporters” value in the assay with NR0B1 promoter is “modulated the NR0B1 and UbC reporters equally”.

In the case of `COc1ccc2[nH]c([S+]([O-])Cc3ncc(C)c(OC)c3C)nc2c1` (stereo not drawn) [Omeprazole], the IC50 (usually the concentration needed to halve the response being measured) on EWS-FLI1 amounted to 7330 nM.

On to `COc1cccc2c1C(=O)c1c(O)c3c(c(O)c1C2=O)C[C@@](O)(C(=O)CO)C[C@@H]3O[C@H]1C[C@H](N)[C@H](O)[C@H](C)O1` [Doxorubincin], for which, in the assay on EWS-FLI1, the “Disruption of EWS-FLI1 binding compared with p53 binding in the parallel assays” value was “disrupt both EWS-FLI1 and p53 binding similarly”. The results for the IC50 on EWS-FLI1 and on p53 were 344 nM and 1220 nM, respectively. In addition, the “Separation of inhibition of the NR0B1 and UbC reporters” value in the assay with NR0B1 promoter was “no separation”.

`CC(C)[C@H](CO)Nc1nc(Nc2cc(N)cc(Cl)c2)c2ncn(C(C)C)c2n1` [Aminopurvalanol A]: the results for the IC50 on EWS-FLI1 and at p53 (setting [2]) were 1830 nM and 1200 nM, respectively.

In the case of `COc1cccc2c1C(=O)c1c(O)c3c(c(O)c1C2=O)C[C@@](O)(C(=O)CO)C[C@@H]3O[C@H]1C[C@H](N)[C@@H](O)[C@H](C)O1` [Epirubicin], the IC50 at EWS-FLI1 came to 42 nM; at p53, 389 nM. Moreover, in the assay with NR0B1 promoter, the “Separation of inhibition of the NR0B1 and UbC reporters” value was “no separation”.

On to Verteporfin, for which, on EWS-FLI1, the IC50 stood at 342 nM.

Take `c1nc2nc(Nc3ccc(N4CCOCC4)cc3)nc(NC3CCCCC3)c2[nH]1` [Reversine]: the IC50 on EWS-FLI1 was 2420 nM; at p53, 2710 nM.

On to `CC(C)=CC[C@@H](O)C1=CC(=O)c2c(O)ccc(O)c2C1=O` [Shikonin], for which the results for the IC50 on EWS-FLI1 and on p53 were 600 nM and 633 nM, respectively.

On to mithramycin, for which, in the assay with Ewing sarcoma cells, the “Growth of Ewing sarcoma cells” value is reported as “inhibited”. Besides, in assay [1], the “Expression of EWS-FLI1 downstream targets” value is on record as “reduced”.

For `CC(=O)[O][Hg][c]1ccccc1` [Phenylmericuric Acetate], the IC50 came to 16 nM at EWS-FLI1 and 25 nM on p53 (setting [2]).

On to `COc1cccc2c1C(=O)c1c(O)c3c(c(O)c1C2=O)C[C@@](O)(C(C)=O)C[C@@H]3O[C@H]1C[C@H](N)[C@H](O)[C@H](C)O1` [Daunorubicin], for which, in the assay with EWS-FLI1, the “Disruption of EWS-FLI1 binding compared with p53 binding in the parallel assays” value is “disrupt both EWS-FLI1 and p53 binding similarly”; the IC50 was found to be 4480 nM.

`COc1cc2c(cc1O)CCN[C@]21CS[C@@H]2c3c(OC(C)=O)c(C)c4c(c3[C@H](COC1=O)N1[C@@H]2[C@H]2c3c(cc(C)c(OC)c3O)C[C@@H]([C@@H]1O)N2C)OCO4` [ET-743, trabectedin]: the “Growth of Ewing sarcoma cells” value with Ewing sarcoma cells was “inhibited”. Also, in assay [1], the “Expression of EWS-FLI1 downstream targets” value is “reduced”.

For `CCCCc1oc2ccccc2c1C(=O)c1cc(I)c(OCCN(CC)CC)c(I)c1` [Amiodarone HCl], the IC50 at p53 (setting [2]) is 5290 nM.

Turning to `CC(C)/N=c1\cc2n(-c3ccc(Cl)cc3)c3ccccc3nc-2cc1Nc1ccc(Cl)cc1` [Clofazimine], the IC50 on EWS-FLI1 was determined as 202 nM; on p53 (setting [2]) it was 203 nM.

For the compound `CCN(CC)CCCC(C)Nc1c2ccc(Cl)cc2nc2ccc(OC)cc12` (stereo not drawn) [Quinacrine HCl], the IC50 was found to be 7030 nM at EWS-FLI1 and 6060 nM at p53 (setting [2]).

Take `Cn1c2ccccc2c2c3c(c4c5ccccc5n(CCC#N)c4c21)CNC3=O` [Go 6976]: the IC50 at p53 (setting [2]) came to 2810 nM.

As for `CCOc1ccc(C=C2SC(=O)N(CCN)C2=O)cc1.Cl` [Erk inihibitor], the IC50 on EWS-FLI1 was 3350 nM; at p53 (setting [2]) it was greater than 10000 nM. The “Separation of inhibition of the NR0B1 and UbC reporters” value in the assay on NR0B1 promoter was “modulated the NR0B1 and UbC reporters equally”.

Take `N.N.[Cl][Pt][Cl]` [Cisplatin]: in the assay on EWS-FLI1, the “Disruption of EWS-FLI1 binding compared with p53 binding in the parallel assays” value is “disrupt both EWS-FLI1 and p53 binding similarly”; the IC50 turned out to be 5390 nM. Also, the IC50 on p53 (setting [2]) worked out at 8870 nM.

On to `CN(C)c1ccc(/C=C2\C(=O)Nc3ccccc32)cc1` [DMBI], for which the IC50 on EWS-FLI1 worked out at 3370 nM; on p53 (setting [2]), 3780 nM.

`CCOc1ccc2c(c1)C(C)=CC(C)(C)N2` [Ethoxyqiun]: the IC50 turned out to be 464 nM at EWS-FLI1 and 484 nM on p53 (setting [2]).
